Marks after values point to notes of the source that are not given here.
Key:
[1] = assay type: in vitro ADME; settings: intestinal microsomes, data not shown
Description: The physiological parameters for rat and human were obtained from Brown et al. ([1997]) as well as Gearhart et al. ([1990]), and are summarised in Table 1. […] The kinetic parameters for biotransformation of DZN in rat and human were obtained by conducting in vitro liver microsomal/plasma incubations as described in the section “In vitro metabolic incubations for deriving kinetic parameters”. […] The first-pass metabolism of DZN by the intestine was not taken into account in the current model because the metabolic conversion in the intestine derived from the conversion in incubations with intestinal microsomes upon scaling to the whole organ, appeared less than 5% of that obtained in a similar way for the liver (data not shown). […] To scale the in vitro Vmax values to the in vivo situation, the following scaling factors were used; 35 mg microsomal protein/g liver for rat hepatic metabolism (Medinsky et al. [1994]), 32 mg microsomal protein/g liver for human hepatic metabolism (Barter et al. [2007]), 77 mg plasma protein/ml plasma (total plasma protein concentration) for human plasma metabolism, and 60 mg plasma protein/ml plasma (total plasma protein concentration) for rat plasma metabolism. Plasma volume in rat and human were assumed as 55% of their corresponding blood volume (O'Neil [1999]). The Km values determined in vitro were assumed to be equal to in vivo Km values. […]

[2] = rat, ref Poet et al. 2004, cited from earlier work
CYP450 = settings: ref Kappers et al. 2001; cited from earlier work
[3] = rat; ref JMPR 2016; cited from earlier work
RBC AChE = assay: TEF-coded PBK model-based reverse dosimetry, predicted in vivo RBC AChE inhibition, rat; settings: for Predicted BMDL10 for rat pups: adult rat predicted BMDL10 corrected by factor 2 (Padilla et al. 2004)
Text: The PBK model for DZN was developed based on the model from Poet et al. ([2004]) with some modifications for both rat and human. The model contains a submodel for the metabolite DZO and was defined to include compartments for rapidly perfused tissue, slowly perfused tissue, liver, fat and blood for both the parent compound DZN and its metabolite DZO. The model also contains a compartment to describe the urinary elimination of the metabolites IMHP and DAP (sum of DEP and DETP). In the currently developed model, oral exposure was included since we aimed at defining a POD for risk assessment of exposure via food and drinking water, and intravenous (IV) exposure was included for model evaluation. The fractional absorption (fa) was set equal to literature reported values, being 0.8 in rat (Poet et al. [2004]) and 0.66 in human (Garfitt et al. [2002]) and applied to the overall dose. The absorption of DZN from the stomach into the liver was described using a two-compartment gastrointestinal tract model as reported by Poet et al. ([2004]), with a first-order rate constant for absorption of DZN from the stomach into the liver (KaS) of 0.1 /h for rat and 0.32/h for human (Poet et al. [2004]), a first-order rate constant for transfer of DZN from the stomach into the intestine (KsI) of 0.48/h for both rat and human, a first-order rate constant for absorption DZN from the intestine into the liver (KaI) of 0.59/h for both rat and human, (Poet et al. [2004]), and Ke values for the elimination of IMHP or DAP (sum of DEP and DETP) into the urine amounting to Ke IMHP = 0.29/h, Ke DEP = 0.29 /h and Ke DETP = 0.29/h for rat (Poet et al. [2004]), and Ke IMHP = 12/h, Ke DEP = 12 /h and Ke DETP = 12/h for human (Garfitt et al. [2002]; Poet et al. [2004]).
The physiological parameters for rat and human were obtained from Brown et al. ([1997]) as well as Gearhart et al. ([1990]), and are summarised in Table 1. […] The kinetic parameters for biotransformation of DZN in rat and human were obtained by conducting in vitro liver microsomal/plasma incubations as described in the section “In vitro metabolic incubations for deriving kinetic parameters”. […] The first-pass metabolism of DZN by the intestine was not taken into account in the current model because the metabolic conversion in the intestine derived from the conversion in incubations with intestinal microsomes upon scaling to the whole organ, appeared less than 5% of that obtained in a similar way for the liver (data not shown). […] The Km values determined in vitro were assumed to be equal to in vivo Km values. […]

Q: Which results are given for CCOP(=S)(OCC)Oc1cc(C)nc(C(C)C)n1 [DZN, O,O-diethyl O-2-isopropyl-6-methylpyrimidin-4-yl phosphorothioate]?
A: metabolic conversion in the intestine scaled to the whole organ, relative to that for the liver [1]: less than 5%; fractional absorption (fa) ([2]; oral): 0.8; first-order rate constant for absorption from the intestine into the liver (KaI) [2]: 0.59 h⁻¹; first-order rate constant for absorption from the stomach into the liver (KaS) [2]: 0.1 h⁻¹; first-order rate constant for transfer from the stomach into the intestine (KsI) [2]: 0.48 h⁻¹; difference in DZO formation from DZN between 15 human liver samples (CYP450): 6- to 59 fold; toxic dose level reported [3]: 300 mg/kg bw; corrected POD (rat pups) higher than POD used by the EPA (RBC AChE): 2.1 fold; predicted rat BMDL10 higher than reported BMDL10 for inhibition of RBC AChE (RBC AChE): 2.6 fold; Predicted BMDL10 for rat pups (RBC AChE): 6.3 mg/kg bw; Predicted BMDL10 for rat pups (RBC AChE; listed as Diazinon): 6.3^a mg/kg bw

— publication PMC8113213, “Physiologically based kinetic modelling based prediction of in vivo rat and human acetylcholinesterase (AChE) inhibition upon exposure to diazinon” (Archives of Toxicology, 2021)
